Key:
DLD-1 cells = assay: Soft agar assay, colony growth of DLD-1 cells; assay type: cell-based, human; details: highest concentration tested (range 10 μM to 75 μM), one dose, stained after 20 days, versus untreated control cells
Experimental: The Example 1 and 24 compounds were compared to the COX-2 inhibitor celecoxib in inhibiting the growth of DLD-1 cells in soft agar. DLD-1 cells are human colorectal carcinoma cells that overexpress COX-2. DLD-1 cells grow in soft agar and form tumors in nude mice. The soft agar assay was performed as follows. A layer of bottom agar ([…]) was placed onto 60 mm^2 tissue culture dishes. The tumor cells were trypsinized from normal growth flasks while in exponential growth. The cells were counted by using a hemacytometer and 1.0×10^5 cells were placed into the top agar mixture containing growth medium, 4% noble agar and various concentrations of drugs. The concentration range was normally between 10 μM to 75 μM. The cells were not refed during the assay system; therefore, the cells were treated with one dose of the agents. The plates were stained 20 days later with a 0.05% (w/v) nitroblue tetrazolium solution (which stains only viable cells) for 48 hours. The results are shown in FIG. 1, the y-axis being the percent of cell colonies remaining in comparison to untreated control cells.

human recombinant COX-2 = target: T1, human recombinant COX-2 (Homo sapiens, UniProt P35354); assay: Cyclooxygenase enzyme assay (TLC method), COX-2; assay type: biochemical; details: human recombinant COX-2, preincubation 90-120 min, [1-14C] arachidonic acid; read-out: IC50 COX-2, inhibition of cyclooxygenase activity
T1 construct: purchased Oxford Biomedical Research Inc
T1 sequence (P35354 18-604): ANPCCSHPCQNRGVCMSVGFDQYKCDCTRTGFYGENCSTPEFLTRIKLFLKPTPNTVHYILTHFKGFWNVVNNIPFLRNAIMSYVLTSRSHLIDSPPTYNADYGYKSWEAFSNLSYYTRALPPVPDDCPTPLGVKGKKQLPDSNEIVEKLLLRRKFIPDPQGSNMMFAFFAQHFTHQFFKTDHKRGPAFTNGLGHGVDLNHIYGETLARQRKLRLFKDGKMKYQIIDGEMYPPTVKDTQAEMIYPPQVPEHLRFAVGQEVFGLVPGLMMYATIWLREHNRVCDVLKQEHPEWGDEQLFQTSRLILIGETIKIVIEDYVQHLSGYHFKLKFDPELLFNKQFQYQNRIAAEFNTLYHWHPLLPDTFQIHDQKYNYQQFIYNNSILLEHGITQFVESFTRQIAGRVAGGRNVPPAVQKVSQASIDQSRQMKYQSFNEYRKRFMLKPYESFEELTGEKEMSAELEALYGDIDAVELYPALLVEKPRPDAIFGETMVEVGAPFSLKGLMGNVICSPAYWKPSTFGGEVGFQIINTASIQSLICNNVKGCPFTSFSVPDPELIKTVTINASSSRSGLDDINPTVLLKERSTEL
Experimental: The compounds of formula I are potent inhibitors of COX-2. […] The resulting radiolabeled prostanoid compounds, i.e., the products of COX-2 reaction with arachidonic acid, were quantified.
Cyclooxygenase activity of ovine COX-1 (Oxford Biomedical Research Inc.) and human recombinant COX-2 (Oxford Biomedical Research Inc.) was assayed by a thin layer chromatography (TLC) method as follows. All inhibitors were dissolved in dimethyl sulfoxide to a stock solution of 5 mM. Human recombinant COX-2 (3 units) or ovine COX-1 (15 units) was incubated with inhibitors at several concentrations in a solution containing 100 mM Tris-HCl, pH7.8, 500 μM phenol and hematin for 90 to 120 minutes at room temperature (24° C.). In controls, equal volumes of DMSO without drug were added to the incubation mixture. After incubation for 90-120 minutes, [1-^14C] arachidonic acid (50 μM, 51 mCi/mmol) (DuPont NEN) was added and incubated at 37° C. for 2 minutes. The reaction was terminated by extraction with 1 ml of ethyl acetate. The ethyl acetate layer was transferred into a fresh tube and evaporated to dryness in a Speedvac vacuum dryer. […] Radiolabeled prostanoid compounds (the products of COX enzymatic reaction with radiolabeled arachidonic acid substrate) were quantitated with a radioactivity scanner (Fuji, Phosphorimager). […]

ovine COX-1 = target: T2, ovine COX-1 (Ovis aries, UniProt P05979); assay: Cyclooxygenase enzyme assay (TLC method), COX-1; assay type: biochemical; details: ovine COX-1, preincubation 90-120 min, [1-14C] arachidonic acid; read-out: IC50 COX-1, inhibition of cyclooxygenase activity
T2 construct: purchased Oxford Biomedical Research Inc
T2 sequence (P05979 25-600): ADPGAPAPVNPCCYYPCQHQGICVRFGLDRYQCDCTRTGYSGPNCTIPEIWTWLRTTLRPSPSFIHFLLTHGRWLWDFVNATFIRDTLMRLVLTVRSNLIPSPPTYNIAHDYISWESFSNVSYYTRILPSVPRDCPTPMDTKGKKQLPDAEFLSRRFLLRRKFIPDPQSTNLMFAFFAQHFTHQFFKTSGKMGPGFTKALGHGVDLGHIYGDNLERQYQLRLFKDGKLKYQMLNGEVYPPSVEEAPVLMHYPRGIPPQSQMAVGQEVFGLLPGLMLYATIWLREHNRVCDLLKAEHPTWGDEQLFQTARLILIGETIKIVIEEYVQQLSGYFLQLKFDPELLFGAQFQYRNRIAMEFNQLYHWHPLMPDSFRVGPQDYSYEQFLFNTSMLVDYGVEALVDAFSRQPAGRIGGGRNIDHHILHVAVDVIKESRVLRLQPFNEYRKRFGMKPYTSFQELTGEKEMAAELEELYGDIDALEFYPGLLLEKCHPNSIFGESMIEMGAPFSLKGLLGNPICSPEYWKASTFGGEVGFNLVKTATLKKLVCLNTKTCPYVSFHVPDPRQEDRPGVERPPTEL
Experimental: Cyclooxygenase activity of ovine COX-1 (Oxford Biomedical Research Inc.) and human recombinant COX-2 (Oxford Biomedical Research Inc.) was assayed by a thin layer chromatography (TLC) method as follows. All inhibitors were dissolved in dimethyl sulfoxide to a stock solution of 5 mM. Human recombinant COX-2 (3 units) or ovine COX-1 (15 units) was incubated with inhibitors at several concentrations in a solution containing 100 mM Tris-HCl, pH7.8, 500 μM phenol and hematin for 90 to 120 minutes at room temperature (24° C.). In controls, equal volumes of DMSO without drug were added to the incubation mixture. After incubation for 90-120 minutes, [1-^14C] arachidonic acid (50 μM, 51 mCi/mmol) (DuPont NEN) was added and incubated at 37° C. for 2 minutes. The reaction was terminated by extraction with 1 ml of ethyl acetate. The ethyl acetate layer was transferred into a fresh tube and evaporated to dryness in a Speedvac vacuum dryer. The contents of the tubes were reconstituted in […] of ethyl acetate and spotted on a TLC plate (J. T. Baker, Phillipsburg, N.J.) and developed in a mobile phase containing chloroform/methanol (95:5) at 4° C. Radiolabeled prostanoid compounds (the products of COX enzymatic reaction with radiolabeled arachidonic acid substrate) were quantitated with a radioactivity scanner (Fuji, Phosphorimager). […]

Row | Structure (SMILES) | inhibition of DLD-1 cell colony growth in soft agar (DLD-1 cells) | IC50 (human recombinant COX-2) | IC50 (ovine COX-1)
1 | NS(=O)(=O)c1ccc(N2N=C(C(F)(F)F)CC2c2ccccc2)cc1 (stereo not drawn) [Example 1, 1-(4-sulfamylphenyl)-3-trifluoromethyl-5-phenyl-2-pyrazoline] | 100% | 100 nM | > 100000 nM
2 | NS(=O)(=O)c1ccc(N2N=C(C(F)(F)F)CC2c2c[nH]c3ccccc23)cc1 (stereo not drawn) [Example 24, 1-(4-sulfamylphenyl)-3-trifluoromethyl-5-(3-indolyl)-2-pyrazoline] | 100% | 78 nM | > 100000 nM

Reference: patent publication US20070066651A1, “Pyrazoline derivatives useful for the treatment of cancer” (LABORATORIOS DEL DR. ESTEVE S.A., priority 2004, published 2007)
